Entries after “also recorded” stand apart in the source; their conditions may differ.
Tests used:
sickle cell patients = conditions: Ataga et al.; cited from earlier work
[1] = in vivo; cited from earlier work
donor RBCs = assay: Flow assay: adhesion of donor RBC to laminin-α5 in response to IL-8 and sera from sepsis patients

NC(=O)C(c1ccccc1)(c1ccc(F)cc1)c1ccc(F)cc1 [Senicapoc, 4-fluoro-α-(4-fluorophenyl)-α-phenyl-benzeneacetamide]
Reduction of vaso-occlusive events (sickle cell patients): did not result in reduction of vaso-occlusive events | Tolerability [1]: well-tolerated | AI-mediated degradation of RBC in vitro (donor RBCs; in vitro, see Example 1): counteracts AI-mediated degradation of RBC

Clc1ccccc1C(c1ccccc1)(c1ccccc1)n1cccn1 [TRAM34, 1-[(2-chlorophenyl)diphenylmethyl]-1H-pyrazole]
Adhesion of donor RBCs to laminin-α5 in response to IL-8 incubation (donor RBCs; RBCs pre-incubated with inhibitor 30 min, then IL-8 30 min at 37° C., FIG. 8B, 8C): inhibited; also recorded: counteracted | Adhesion of donor RBCs to laminin-α5 in response to sera of sepsis patients (donor RBCs; RBCs pre-incubated with inhibitor 30 min, then sera of sepsis patients 30 min at 37° C., FIG. 8D): inhibited
